Legend:
Type in all cases: cell-based
NIH-PPARγ cells = experiment: Adipocyte differentiation, oil red O staining, NIH-3T3 fibroblasts expressing PPARγ; details: 7 days; for % lipid containing cells: NIH-PPARγ cells, range over three experiments
Method: (§1) Simultaneous exposure of competent cells to both PPARγ and RXR-specific ligand was investigated to determine if such combination might provide a stronger adipogenic signal than a PPARγ ligand alone. The ability of the. […] It has previously been shown that wild-type NIH-3T3 cells express RXRα, but not PPARγ. NIH-vector and NIH-PPARγ cells were cultured as described in the Examples.

NIH-vector cells = experiment: Adipocyte differentiation, oil red O staining, NIH-vector cells; details: 7 days; for % lipid containing cells: range over three experiments
Method: as §1, with “Examples. […] After an additional four days of culture, cells were fixed and stained with oil red O. Data are presented in Table 1 as the range of morphologically recognizable differentiation observed for each line over three separate experiments.” for “Examples.”

LS857 cells = experiment: Differentiation / lipid accumulation of primary human liposarcoma cells LS857; details: 7 days
Method: (§2) Liposarcomas have presumably acquired one or more genetic defects that interfere with the course of normal adipocyte development. The observation that PPARγ is expressed consistently in these tumors raised the possibility that the malignant cells might be forced to complete the differentiation program by maximally activating the PPARγ pathway. To address this possibility, primary cells isolated from three human liposarcomas were cultured in vitro. Primary cell strains LS857 and LS175 were derived from well differentiated liposarcomas and LS707 was derived from an intermediate grade myxoid/round cell liposarcoma (see Table 3). High grade pleomorphic liposarcoma cells could not be expanded to sufficient numbers to permit studies of differentiation. A primary leiomyosarcoma cell line LM203 was cultured as a control. To confirm that these cultures consisted of malignant tumor-derived cells, cytogenetic analysis was performed.
(§3) When cultured in the presence of fetal bovine serum and insulin, conditions permissive for adipocyte differentiation, all three cell lines maintain a fibroblastic morphology. LS175 cells contained small amounts of stainable lipid under these conditions. […] The degree of morphologically recognizable differentiation varied from 40% in the LS857 cells to 75% in the LS175 cells. […] This experiment was performed at least twice with each cell strain with quantitatively and qualitatively similar results.
The ability of LG268 to promote differentiation of human liposarcoma cells was then examined. […] To further characterize the effects of PPARγ and RXR ligands on liposarcoma cells, the expression of adipocyte-specific markers were examined by Northern blotting. LS857 cells, like the tumor from which they were derived, express PPARγ mRNA. Treatment of LS857 cells with pioglitazone leads to the induction of two markers of terminal adipocyte differentiation, the MRNAs encoding aP2 and adipsin. […]

LS175 cells = experiment: Differentiation / lipid accumulation of primary human liposarcoma cells LS175; details: 10 μM, 7 days
Method: as §2
as §3, with “[…]. […]” for “This experiment was performed at least twice with each cell strain with quantitatively and qualitatively similar results.”

Row | Structure (SMILES) | % lipid containing cells (NIH-PPARγ cells; 50 nM LG268 alone) | stimulation of adipocyte differentiation (in words) (NIH-PPARγ cells; confluent NIH-PPARγ cells, 50 nM LG268, 1 μM pioglitazone) | % lipid containing cells (NIH-vector cells; 50 nM LG268 alone) [%] | adipogenic effect (in words) (NIH-vector cells) | lipid accumulation, oil red O, macroscopic view of culture dishes (LS857 cells; LS857, 5 μM thiazolidinedione, 50 nM LG268, four more days of culture) | adipocyte differentiation (in words) (LS857 cells; LS857 cells, 50 nM LG268, 10 μM pioglitazone) | degree of morphologically recognizable differentiation (LS175 cells) [%] | % lipid containing cells (NIH-PPARγ cells; 1 μM pioglitazone alone) | % lipid containing cells (NIH-vector cells; 1 μM pioglitazone alone) [%] | degree of morphologically recognizable differentiation (LS857 cells; LS857 cells, 10 μM) [%]
1 | Cc1cc2c(cc1C1(c3ccc(C(=O)O)cn3)CC1)C(C)(C)CCC2(C)C [LG268, 6-[1-(8 pentamethyl-5,6,7,8-tetrahydronaphthalen-2-yl)cyclopropyl]nicotinic acid] | 50-65% | significant stimulation of adipocyte differentiation | 0 | no effect | significant lipid accumulation | significant degree of adipocyte differentiation | – | – | – | –
2 | CCc1ccc(CCOc2ccc(CC3SC(=O)NC3=O)cc2)nc1 (stereo not shown) [pioglitazone] | – | – | – | – | – | – | 75 | 60-70% | 0 | 40

Reference: patent publication US6586455B1, “Treatment of liposarcomas using a combination of thiazolidinediones and retinoid X receptor selective agonists” (The Salk Institute for Biological Studies, priority 1996, dated 2003)
